Test results published in patent US11077205B2, “Synthetic compound for improving efficiency of transfection” (Klinikum der Universität München, priority 2016, dated 2021).
Where no end group is shown, it is not given here. The star is where a group is joined. ξ: configuration not given here. Lipoyl(6ξ) = O=C(CCCCC1CCSS1)*

Experiments:
[1] = normalized: most hydrophobic residue 100, glycine 0, cited from earlier work; for hydrophobicity index At pH 2: from Sereda et al. 1994; for hydrophobicity index At pH 7: from Monera et al. 1995
16HBE cells [2] = experiment: In vitro transfection, Metridia luciferase assay in 16HBE cells; assay type: cell-based, human
BEAS-2B cells [3] = experiment: In vitro transfection, Metridia luciferase assay in BEAS-2B cells; assay type: cell-based, human; conditions: for pDNA expression compared with compound 0 containing ternary complexes: day 3
BEAS-2B cells [4] = experiment: as above; assay type: cell-based, human; conditions: for pDNA transfection efficiency of P704 ternary complex (in words): MetLuc pDNA, P704 50 (w/w), FIG. 14a
Experimental: (§1) Preparation of IVT-mRNA/pDNA containing binary and ternary complexes: Stock solutions of P704 (5 mg/ml) and synthetic compound (1 mg/ml) were prepared in nuclease-free water (NF water) and stored at 4° C. P704 based binary complexes (P704/IVT-mRNA or P704/pDNA) were prepared by mixing equal volumes of diluted P704 stock solution with IVT-mRNA or pDNA solution at the desired concentration in 2× Tyrode's solution. Ternary complexes were generated via two-steps incubation. Briefly, P704 solutions at certain concentration (defined as weight/weight (w/w) ratio between P704 and nucleic acids) in NF-water were mixed with equal volume of synthetic compound solution at specific concentration (defined as N/P ratio, namely the […] between nitrogen residues in synthetic compound and nucleic acids phosphate groups). After 20 min incubation at room temperature (RT), same volumes of nucleic acid (IVT-mRNA or pDNA) solution in NF-water were added to the above P704/synthetic compound solution and mixed gently by pipetting up and down several times. Subsequently, complexes were incubated for another 20 min at RT prior to further use. IVT-mRNA or pDNA solutions in NF-water were complexed with brPEI (25 kDa) at an optimum N/P ratio, the resulting complexes were served as a control polyplex. As for control lipoplex, Lipofectamine® 2000 complexes were prepared according to the manufacturer's instructions using optimum concentration. In order to prepare DOTAP/DOPE liposomes, a lipid film was formed by removing the chloroform solvent in DOTAP/DOPE mixture solution under nitrogen atmosphere. The lipid film is hydrated with NF-water to make the final concentration 10 mM DOTAP/DOPE. The DOTAP/DOPE liposome formulation was formed by mixing 250 μl of pDNA encoding for firefly luciferase and cystic fibrosis transmembrane conductance regulator (fLUC-CFTR pDNA) (150 μg) containing solution and 250 μl diluted DOTAP/DOPE solution (190 μl of 10 mM DOTAP/DOPE liposome and 60 μl NF-water). The mix solution was incubated at RT for 20 min prior to further use.
(§2) In vitro transfection: For the luciferase assay, cells were seeded at a density of 1.8×10^4/well (BEAS-2B) or 3.5×10^4/well (16HBE) in 96-well plates 24 h before transfection to reach 60-80% confluence. Following removal of growth medium, cells were rinsed with DPBS (Gibco, Germany). 170 μl of fresh serum-free OptiMEM (Gibco, Germany) were added per well, and subsequently 30 μl of IVT-mRNA or pDNA containing complexes prepared, as described above, corresponding to 400 ng IVT-mRNA or pDNA per well, were added in replicates of five. After 4 h of incubation at 37° C. in a humidified 5% CO2-containing atmosphere, the transfection medium was replaced with culture medium supplemented with 10% FBS and 1% (v/v) penicillin/streptomycin. Luciferase activity in 50 μl supernatants from transfected cells was assayed with Metridia luciferase substrate (coelenterazine, Invivogen, France) after 24 h using a FLUOstar microplate reader (BMG Labtech, Germany) and its activity is expressed in relative light units (RLU). In all cases each sample was measured on at least two other occasions to ensure the reproducibility of the data.
The same transfection procedure as described above was applied. Luciferase activity was expressed in RLU. The data are given as the mean±standard deviation (SD) of the mean (n>5) in FIGS. 12a to 12k.
(§3) The concentration of P704 in ternary complexes for treatment of BEAS-2B cells was 50 (w/w) and the concentration of P704 in ternary complexes for treatment of 16HBE cells was 63 (w/w). The N/P ratios of the compounds in ternary complexes were as follows:
BEAS-2B cells: Compound 0 (DL) at 30, compound 1 at 20, compounds 3 and 11 at 15, compounds 4 and 6 at 10, compounds 2 and 9 at 5, compounds 5, 7, 8 and 10 at 2.5.
The same transfection procedure as described above was applied. Luciferase activity was expressed in RLU. […]

16HBE cells [5] = experiment: In vitro transfection, Metridia luciferase assay in 16HBE cells; assay type: cell-based, human; conditions: for pDNA transfection efficiency of P704 ternary complex (in words): MetLuc pDNA, FIG. 14b
Experimental: as §1
as §2, with “data. […]” for “data.”
as §3
16HBE cells: Compound 0 (DL) at 20, compounds 1 and 11 at 15, compounds 2 and 3 at 10, compounds 4, 6, 8, and 9 at 5, compounds 5, 7, and 10 at 2.5.
The same transfection procedure as described above was applied.
The concentration of P704 in ternary complexes was 63 (w/w). The N/P ratio of the compounds in certain ternary complexes was as follows:
16HBE cells: Compound 1, 8, and 11 at 20; compound 0 (DL) and 3 at 10; compound 2 at 7.5; compounds 4, 6, 9, and 10 at 5, compounds 5 and 7 at 2.5. […]

airway epithelium cells = experiment: In vitro transfection study on cultured airway epithelium cells (luciferase, RLU/mg cellular protein); assay type: cell-based; conditions: ternary complexes formed by P704, a nucleic acid and the compound
Experimental: as §2, with “Luciferase activity in 50 μl supernatants from transfected cells was” left out, “[…]).” for “Germany) and its activity is expressed in relative light units (RLU).”

[6] = MetLuc mRNA, optimum composition
[7] = MetLuc pDNA, P704 ternary complex, day 3, optimum composition

Row | Compound | hydrophobicity index At pH 2 [1] | hydrophobicity index At pH 7 [1] | other results
1 | N[C@@H](Cc1ccccc1)C(=O)O [Phenylalanine (phe), Phenylalanine] | 92 | 100 | –
2 | C[C@H](N)C(=O)O [Alanine (ala), Alanine] | 47 | 41 | –
3 | DL-lipoic acid-WLHHHKKLLHHHKKL-GACSERSMNFCG ({Lipoyl(6ξ)}-WLHHHKKLLHHHKKLGACSERSMNFCG; cysteine pairing not given here) [compound 8] | – | – | luciferase expression of ternary complexes with P304 and MetLuc mRNA (16HBE cells [2]; P304 2000 (w/w), high N/P ratio, even higher than compound 9, FIG. 25a): rather high luciferase expression
4 | CC(C)[C@H](N)C(=O)O [Valine (val), Valine] | 79 | 76 | –
5 | CC[C@H](C)[C@H](N)C(=O)O [Isoleucine (ile), Isoleucine] | 100 | 99 | –
6 | DL-lipoic acid-WKKRRRRRRRRKK-GACYGLPHKFCG ({Lipoyl(6ξ)}-WKKRRRRRRRRKKGACYGLPHKFCG; cysteine pairing not given here) [compound 7] | – | – | pDNA expression compared with compound 0 containing ternary complexes (BEAS-2B cells [3]): slightly better; pDNA transfection efficiency of P704 ternary complex (in words) (BEAS-2B cells [4]; optimum N/P): similar
7 | N[C@@H](Cc1c[nH]c2ccccc12)C(=O)O [Tryptophan (trp), Tryptophan] | 84 | 97 | –
8 | DL-lipoic acid-WKKRRRRRRRRRKK-GACSERSMNFCG ({Lipoyl(6ξ)}-WKKRRRRRRRRRKKGACSERSMNFCG; cysteine pairing not given here) [compound 6] | – | – | pDNA transfection efficiency of P704 ternary complex (in words) (16HBE cells [5]; P704 63 (w/w), optimum N/P): overwhelming signals
9 | DL-lipoic acid-WKKKKRRRRRKKKK-GACSERSMNFCG ({Lipoyl(6ξ)}-WKKKKRRRRRKKKKGACSERSMNFCG; cysteine pairing not given here) [compound 4] | – | – | pDNA transfection efficiency of P704 ternary complex (in words) (BEAS-2B cells [4]; optimum N/P): similar
10 | NH2-VKRKKKPKKRRRRKK-CONH2 (H-VKRKKKPKKRRRRKK-NH2) [compound 1] | – | – | IVT-mRNA transfection efficiency relative to P704/compound 0/IVT-mRNA complex (16HBE cells [5]; [6]): one third; pDNA transfection, share of maximum signal intensity of compound 0 counterpart (16HBE cells [2]; [7]): half; pDNA transfection, share of maximum signal intensity of compound 0 counterpart (BEAS-2B cells [3]; [7]): 7%; IVT-mRNA transfection efficiency relative to P704/compound 0/IVT-mRNA complex (BEAS-2B cells [4]; [6]): one third
11 | N[C@@H](CS)C(=O)O [Cysteine (cys), Cysteine] | 52 | 49 | –
12 | NH2-VKRKKKPKKRRRRKKWK(R-lipoic acid)-CONH2 (H-VKRKKKPKKRRRRKKWK(R‑lipoic acid)-NH2) [compound 0 (R)] | – | – | transfection efficiencies of ternary complexes with compound 0 (DL) versus compound 0 (R) (airway epithelium cells): similar
13 | CSCC[C@H](N)C(=O)O [Methionine (met), Methionine] | 74 | 74 | –
14 | N[C@@H](Cc1ccc(O)cc1)C(=O)O [Tyrosine (tyr), Tyrosine] | 49 | 63 | –
15 | NCCCC[C@H](N)C(=O)O [Lysine (lys), Lysine] | −37 | −23 | –
16 | N[C@@H](Cc1c[nH]cn1)C(=O)O [Histidine (his), Histidine] | −42 | 8 | –
17 | DL-lipoic acid-WKKKKRRRRRKKKK-GACYGLPHKFCG ({Lipoyl(6ξ)}-WKKKKRRRRRKKKKGACYGLPHKFCG; cysteine pairing not given here) [compound 5] | – | – | pDNA expression compared with compound 0 containing ternary complexes (BEAS-2B cells [3]): slightly better; pDNA transfection efficiency of P704 ternary complex (in words) (BEAS-2B cells [4]; optimum N/P): similar
18 | O=C(O)CCCCC1CCSS1 (racemic) [compound 2, DL-lipoic acid, reference compound] | – | – | IVT-mRNA transfection efficiency of P704 ternary complex (in words) (16HBE cells [5]; MetLuc mRNA, P704 63 (w/w), optimum N/P, FIG. 17b): rather low transfection efficiency; pDNA transfection efficiency of P704 ternary complex (in words) (16HBE cells [5]; P704 63 (w/w), optimum N/P): rather low transfection efficiency; IVT-mRNA transfection efficiency of P704 ternary complex (in words) (BEAS-2B cells [4]; MetLuc mRNA, P704 63 (w/w), optimum N/P, FIG. 17a): rather low transfection efficiency; pDNA transfection efficiency of P704 ternary complex (in words) (BEAS-2B cells [4]; optimum N/P): rather low transfection efficiency
19 | NC(=O)C[C@H](N)C(=O)O [Asparagine (asn), Asparagine] | −41 | −28 | –
